SMILES strings stand for the structures. Several values for one entry are separate records, joined by “and”; a condition that tells them apart may be missing. Equal entries are not always repeated.

The assay deals with T1, mTOR (Homo sapiens, UniProt P42345).
T1 construct: capturing of endogenously expressed target proteins from cell extracts by a bead-immobilized capturing ligand; endogenous in cells; host or cells: HuT-78 cells (ECACC 88041901), cell lysate
The experiment in a line: mTOR kinobeads assay (competition-binding assay). The settings on record: HuT-78 cell extract, endogenously expressed mTOR, bead-immobilized capturing ligand; mean of multiple experiments; read-out: mean pIC50, affinity for mTOR (converted). The protocol:
The affinity of test compounds for mTOR was determined in the mTOR kinobeads assay. This is a competition-binding assay based on the capturing of endogenously expressed target proteins from cell extracts by a bead-immobilized capturing ligand in presence of the test compound.
HuT-78 cells (European Collection of Authenticated Cell Cultures, 88041901) were cultured according to vendor's instructions. Frozen cell pellets were homogenized in 3× pellet volumes lysis buffer (50 mM Tris-HCl, 0.4% (v/v) Igepal-CA630, 5% glycerol, 150 mM NaCl, 1.5 mMMgCl2, 25 mM NaF, 1 mM sodium vanadate, 1 mM DTT, pH 7.5, supplemented with EDTA-free protease inhibitor tablet (Roche)). The sample was dispersed using a Dounce homogenizer, kept rotating for 30 min at 4° C., and centrifuged for 10 min at 20 000 g at 4° C. The supernatant was centrifuged again for 1 h at 145 000 g. The protein concentration was determined by Bradford assay (BioRad), aliquots were snap frozen in liquid nitrogen and stored at −80° C.
The capturing matrices were generated by derivatizing N-hydroxysuccinimide (NHS) activated Sepharose 4 beads (GE Healthcare) with the functionalized ligands Compound A and Compound C at a ligand density of 5 mM. Remaining NHS-groups were blocked with ethanolamine.
For the mTOR kinobeads assay the matrices were combined in a 1:1 ratio and equilibrated in DP buffer (50 mM Tris-HCl (pH 7.5), 0.4% (v/v) Igepal-CA630, 5% (v/v) glycerol, 150 mM NaCl, 1.5 mM MgCl2, 25 mM NaF, 1 mM Na3VO4, 1 mM dithiothreitol). All steps of the mTOR kinobeads assay were performed at 4° C. or on ice. The cell lysate was diluted with DP buffer to a final concentration of 5 mg/ml and a final detergent concentration of 0.4% (v/v) Igepal-CA630. For the assay 250 μg cell lysate and 2.5 μl capturing matrix per well (final assay volume: 75 μl) were incubated in the presence of test compounds in a 384-well filter plate (MultiScreenHTS HV Filter Plate, 0.45 μm, MZHVNOW50, Merck Millipore). Each plate contained 16 positive (100 μM Compound B) and 16 negative (2% v/v DMSO) control wells. Compounds were tested in a concentration-response applying 1:3 or 1:4 dilution steps for in total 11 data points. DMSO concentration was 2% (v/v). After 2 h incubation on an overhead shaker (Roto-Shake Genie, Scientific Industries Inc.) at 4° C. the non-bound fraction was removed by washing the beads with DP buffer. Proteins retained on the beads were eluted in SDS sample buffer (200 mM Tris (pH 7.4), 250 mM Trizma Base, 4% (w/v) SDS, 20% (v/v) glycerol, 0.01% (w/v) bromophenol blue, 50 mM dithiothreitol) into a collection plate (384 well polypropylene microplate, V-shape, Greiner, 781 280). Eluates were spotted on nitrocellulose membranes (400 nl per spot) using an automated pin-tool liquid transfer (Biomek FX, Beckman). After drying, the membranes were rehydrated in 20% (v/v) ethanol and blocked by incubation with Odyssey blocking buffer (LICOR, 927-40000) for 1 h at room temperature. Blocked membranes were incubated overnight at 25° C. with Odyssey blocking buffer supplemented with a specific anti-mTOR antibody (Cell Signaling, 2972; 1:500) and 0.4% TWEEN-20. Then the membranes were washed in PBST buffer and incubated for 60 minutes at room temperature with the detection antibody (IRDye™ labelled antibody from LI-COR) diluted in Odyssey blocking buffer (LICOR 927-40000) containing 0.2% TWEEN-20. Then the membranes were washed with PBST and finally rinsed twice with PBS buffer to remove residual Tween-20. The membranes were then scanned with the Odyssey® Infrared Imaging System (LI-COR Biosciences). Fluorescence signals were recorded and analyzed according to the instructions of the manufacturer. Concentration response curves were computed with the software Activity Base. All data were normalized to the mean of 16 high (negative control) and 16 low (positive control) control wells on each plate. […]
On to `CNCc1cc2nc(-c3cc(C(C)(C)S(C)(=O)=O)cc(N4CCOC[C@@H]4C)n3)ccc2[nH]1` [Example 2, (S)—N-methyl-1-(5-(6-(3-methylmorpholino)-4-(2-(methylsulfonyl)propan-2-yl)pyridin-2-yl)-1H-pyrrolo[3,2-b]pyridin-2-yl)methanamine], for which the IC50 is 2.51 to 31.6 nM and 2.51 to 316 nM.

With `CNCc1cc2nc(-c3cc(C(C)(C)S(C)(=O)=O)cc(N4[C@@H]5CC[C@H]4COC5)n3)ccc2[nH]1` [Example 3, 1-(5-(6-((1R,5S)-3-oxa-8-azabicyclo[3.2.1]octan-8-yl)-4-(2-(methylsulfonyl)propan-2-yl)pyridin-2-yl)-1H-pyrrolo[3,2-b]pyridin-2-yl)-N-methylmethanamine], the IC50 was 2.51 to 316 nM.

Take `CNCc1cc2nc(-c3cc(C(C)(C)S(C)(=O)=O)cc(N4CC5CCC(C4)O5)n3)ccc2[nH]1` [Example 4, 1-(5-(6-(8-oxa-3-azabicyclo[3.2.1]octan-3-yl)-4-(2-(methylsulfonyl)propan-2-yl)pyridin-2-yl)-1H-pyrrolo[3,2-b]pyridin-2-yl)-N-methylmethanamine]: the IC50 was 2.51 to 31.6 nM and 2.51 to 316 nM.

As for `CNCc1cc2nc(-c3cc(C(C)(C)S(C)(=O)=O)cc(N4C5CCCC4COC5)n3)ccc2[nH]1` [Example 5, 1-(5-(6-(3-oxa-9-azabicyclo[3.3.1]nonan-9-yl)-4-(2-(methylsulfonyl)propan-2-yl)pyridin-2-yl)-1H-pyrrolo[3,2-b]pyridin-2-yl)-N-methylmethanamine], the IC50 was 2.51 to 316 nM.

In the case of `CNCc1cc2nc(-c3cc(CS(C)(=O)=O)cc(N4CCOC[C@@H]4C)n3)ccc2[nH]1` [Example 6, (S)—N-methyl-1-(5-(6-(3-methylmorpholino)-4-((methylsulfonyl)methyl)pyridin-2-yl)-1H-pyrrolo[3,2-b]pyridin-2-yl)methanamine], the IC50 was 2.51 to 31.6 nM and 2.51 to 316 nM.

For `CCS(=O)(=O)C(C)(C)c1cc(-c2ccc3[nH]c(CNC)cc3n2)nc(N2CCOC[C@@H]2C)c1` [Example 7, (S)-1-(5-(4-(2-(ethylsulfonyl)propan-2-yl)-6-(3-methylmorpholino)pyridin-2-yl)-1H-pyrrolo[3,2-b]pyridin-2-yl)-N-methylmethanamine], the IC50 is 2.51 to 316 nM.

In the case of `CC[C@H]1COCCN1c1cc(C(C)(C)S(=O)(=O)C2CC2)cc(-c2ccc3[nH]c(CNC)cc3n2)n1` [Example 9, (S)-1-(5-(4-(2-(cyclopropylsulfonyl)propan-2-yl)-6-(3-ethylmorpholino)pyridin-2-yl)-1H-pyrrolo[3,2-b]pyridin-2-yl)-N-methylmethanamine], the IC50 is 2.51 to 316 nM.

Take `CC[C@H]1COCCN1c1cc(CS(=O)(=O)C2CC2)cc(-c2ccc3[nH]c(CNC)cc3n2)n1` [Example 10, (S)-1-(5-(4-((cyclopropylsulfonyl)methyl)-6-(3-ethylmorpholino)pyridin-2-yl)-1H-pyrrolo[3,2-b]pyridin-2-yl)-N-methylmethanamine]: the IC50 was 2.51 to 31.6 nM and 2.51 to 316 nM.

`CC[C@H]1COCCN1c1cc(C2(S(=O)(=O)C3CC3)CC2)cc(-c2ccc3[nH]c(CNC)cc3n2)n1` [Example 11, (S)-1-(5-(4-(1-(cyclopropylsulfonyl)cyclopropyl)-6-(3-ethylmorpholino)pyridin-2-yl)-1H-pyrrolo[3,2-b]pyridin-2-yl)-N-methylmethanamine]: the IC50 was 2.51 to 316 nM.

For the molecule `CNCc1cc2nc(-c3cc(C(F)(F)S(C)(=O)=O)cc(N4CCOC[C@@H]4C)n3)ccc2[nH]1` [Example 12, (S)-1-(5-(4-(difluoro(methylsulfonyl)methyl)-6-(3-methylmorpholino)pyridin-2-yl)-1H-pyrrolo[3,2-b]pyridin-2-yl)-N-methylmethanamine], the IC50 was 2.51 to 316 nM.

For the molecule `CC[C@H]1COCCN1c1cc(CS(C)(=O)=O)cc(-c2ccc3[nH]c(CNC)cc3n2)n1` [Example 13, (S)-1-(5-(6-(3-ethylmorpholino)-4-((methylsulfonyl)methyl)pyridin-2-yl)-1H-pyrrolo[3,2-b]pyridin-2-yl)-N-methylmethanamine], the IC50 is 2.51 to 31.6 nM and 2.51 to 316 nM.

With `CC[C@H]1COCCN1c1cc(CS(=O)(=O)N(C)C)cc(-c2ccc3[nH]c(CNC)cc3n2)n1` [Example 17, (S)-1-(2-(3-ethylmorpholino)-6-(2-((methylamino)methyl)-1H-pyrrolo[3,2-b]pyridin-5-yl)pyridin-4-yl)-N,N-dimethylmethanesulfonamide], the IC50 is 2.51 to 31.6 nM and 2.51 to 316 nM.

On to `CC[C@H]1COCCN1c1cc(C2(S(C)(=O)=O)CC2)cc(-c2ccc3[nH]c(CNC)cc3n2)n1` [Example 19, [(5-{6-[(3S)-3-ethylmorpholin-4-yl]-4-(1-methanesulfonylcyclopropyl)pyridin-2-yl}-1H-pyrrolo[3,2-b]pyridin-2-yl)methyl](methyl)amine], for which the IC50 was 2.51 to 31.6 nM and 2.51 to 316 nM.

Consider `CNCc1cc2nc(-c3cc(C4(S(C)(=O)=O)CC4)cc(N4CCOC[C@@H]4C)n3)ccc2[nH]1` [Example 20, ({5-[4-(1-methanesulfonylcyclopropyl)-6-[(3S)-3-methylmorpholin-4-yl]pyridin-2-yl]-1H-pyrrolo[3,2-b]pyridin-2-yl}methyl)(methyl)amine], for which the IC50 was 2.51 to 316 nM.

Turning to `CC[C@H]1COCCN1c1cc(C(C)(C)S(C)(=O)=O)cc(-c2ccc3[nH]c(CN)cc3n2)n1` [Example 21, 1-(5-{6-[(3S)-3-ethylmorpholin-4-yl]-4-(2-methanesulfonylpropan-2-yl)pyridin-2-yl}-1H-pyrrolo[3,2-b]pyridin-2-yl)methanamine], the IC50 was 2.51 to 31.6 nM and 2.51 to 316 nM.

As for `CC[C@H]1COCCN1c1cc(C2(S(C)(=O)=O)CCOCC2)cc(-c2ccc3[nH]c(CN)cc3n2)n1` [Example 23, 1-(5-{6-[(3S)-3-ethylmorpholin-4-yl]-4-(4-methanesulfonyloxan-4-yl)pyridin-2-yl}-1H-pyrrolo[3,2-b]pyridin-2-yl)methanamine], the IC50 was 2.51 to 31.6 nM and 2.51 to 316 nM.

With `CNCc1cc2nc(-c3cc(CS(C)(=O)=O)cc(N4CC5CCC(C4)O5)n3)ccc2[nH]1` [Example 25, ({5-[4-(methanesulfonylmethyl)-6-{8-oxa-3-azabicyclo[3.2.1]octan-3-yl}pyridin-2-yl]-1H-pyrrolo[3,2-b]pyridin-2-yl}methyl)(methyl)amine], the IC50 is 2.51 to 31.6 nM and 2.51 to 316 nM.

As for `CC[C@H]1COCCN1c1cc(C(C)(C)S(N)(=O)=O)cc(-c2ccc3[nH]c(CNC)cc3n2)n1` [Example 28, 2-{2-[(3S)-3-ethylmorpholin-4-yl]-6-{2-[(methylamino)methyl]-1H-pyrrolo[3,2-b]pyridin-5-yl}pyridin-4-yl}propane-2-sulfonamide], the IC50 was 2.51 to 31.6 nM and 2.51 to 316 nM.

Turning to `CC[C@H]1COCCN1c1cc(CS(=O)(=O)NC)cc(-c2ccc3[nH]c(CNC)cc3n2)n1` [Example 30, 1-{2-[(3S)-3-ethylmorpholin-4-yl]-6-{2-[(methylamino)methyl]-1H-pyrrolo[3,2-b]pyridin-5-yl}pyridin-4-yl}-N-methylmethanesulfonamide], the IC50 is 2.51 to 31.6 nM and 2.51 to 316 nM.

In the case of `CC[C@H]1COCCN1c1cc(C2(S(=O)(=O)N(C)C)CCOCC2)cc(-c2ccc3[nH]c(CNC)cc3n2)n1` [Example 31, 4-{2-[(3S)-3-ethylmorpholin-4-yl]-6-{2-[(methylamino)methyl]-1H-pyrrolo[3,2-b]pyridin-5-yl}pyridin-4-yl}-N,N-dimethyloxane-4-sulfonamide], the IC50 was 2.51 to 31.6 nM and 2.51 to 316 nM.

On to `CC[C@H]1COCCN1c1cc(C(C)(C)S(C)(=O)=O)cc(-c2ccc3[nH]c(CO)cc3n2)n1` [Example 32], for which the IC50 is 2.51 to 31.6 nM and 2.51 to 316 nM.

Values taken from patent US11254671B2, “Chemical compounds” (GLAXOSMITHKLINE INTELLECTUAL PROPERTY DEVELOPMENT LIMITED, priority 2017, dated 2022).
